One assay deals with PI3 Kinase α (Homo sapiens, UniProt P42336). The experiment in a line: Fluorescence polarization assay for PI3K (PI3 Kinase α). The format is biochemical. Particulars: diC8-PI(4,5)P2 substrate, 25 μM ATP, one hour at 25° C.
The target of a further assay is PI3 Kinase γ (Homo sapiens, UniProt P48736). Nature of the assay: Fluorescence polarization assay for PI3K (PI3 Kinase γ). The format is biochemical. Particulars: diC8-PI(4,5)P2 substrate, 25 μM ATP, one hour at 25° C. Background: Fluorescence polarisation rises when a labelled molecule tumbles more slowly, as on binding a larger partner.

For 20 molecules, IC50 results are on record in patent US20090181963A1, “3H-[1,2,3]TRIAZOLO[4,5-D]PYRIMIDINE COMPOUNDS, THEIR USE AS mTOR KINASE AND PI3 KINASE INHIBITORS, AND THEIR [sequence]” (Wyeth, priority 2008, published 2009).

PI3 Kinase γ, sequence (P48736 whole entry): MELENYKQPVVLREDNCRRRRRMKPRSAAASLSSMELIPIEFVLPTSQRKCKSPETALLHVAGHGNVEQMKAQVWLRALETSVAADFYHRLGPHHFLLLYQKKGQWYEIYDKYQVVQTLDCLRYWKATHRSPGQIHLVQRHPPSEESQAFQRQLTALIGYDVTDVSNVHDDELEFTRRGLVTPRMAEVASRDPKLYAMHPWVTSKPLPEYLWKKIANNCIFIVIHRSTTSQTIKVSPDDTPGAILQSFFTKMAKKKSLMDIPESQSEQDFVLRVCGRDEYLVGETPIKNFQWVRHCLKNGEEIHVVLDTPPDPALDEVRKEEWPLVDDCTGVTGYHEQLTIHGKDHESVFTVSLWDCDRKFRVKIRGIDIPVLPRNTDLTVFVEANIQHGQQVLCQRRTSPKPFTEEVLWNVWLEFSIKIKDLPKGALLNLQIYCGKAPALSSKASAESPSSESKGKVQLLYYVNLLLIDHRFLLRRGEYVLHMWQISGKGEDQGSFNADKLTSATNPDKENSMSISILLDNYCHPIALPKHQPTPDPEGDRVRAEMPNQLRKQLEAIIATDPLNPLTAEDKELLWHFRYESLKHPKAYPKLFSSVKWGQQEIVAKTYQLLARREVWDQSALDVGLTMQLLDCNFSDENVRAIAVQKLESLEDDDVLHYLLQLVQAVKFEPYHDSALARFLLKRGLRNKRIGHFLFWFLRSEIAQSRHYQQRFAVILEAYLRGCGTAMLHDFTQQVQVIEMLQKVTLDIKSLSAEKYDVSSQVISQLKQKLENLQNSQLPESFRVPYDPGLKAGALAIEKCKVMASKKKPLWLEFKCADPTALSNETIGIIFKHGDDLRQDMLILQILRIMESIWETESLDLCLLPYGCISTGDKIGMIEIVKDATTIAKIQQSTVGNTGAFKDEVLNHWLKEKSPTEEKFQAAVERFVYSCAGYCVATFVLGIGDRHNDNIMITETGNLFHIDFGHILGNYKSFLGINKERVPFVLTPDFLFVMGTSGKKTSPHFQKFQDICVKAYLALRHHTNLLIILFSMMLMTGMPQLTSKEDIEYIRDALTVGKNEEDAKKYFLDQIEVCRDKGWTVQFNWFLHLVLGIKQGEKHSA
PI3 Kinase α, sequence (P42336 whole entry): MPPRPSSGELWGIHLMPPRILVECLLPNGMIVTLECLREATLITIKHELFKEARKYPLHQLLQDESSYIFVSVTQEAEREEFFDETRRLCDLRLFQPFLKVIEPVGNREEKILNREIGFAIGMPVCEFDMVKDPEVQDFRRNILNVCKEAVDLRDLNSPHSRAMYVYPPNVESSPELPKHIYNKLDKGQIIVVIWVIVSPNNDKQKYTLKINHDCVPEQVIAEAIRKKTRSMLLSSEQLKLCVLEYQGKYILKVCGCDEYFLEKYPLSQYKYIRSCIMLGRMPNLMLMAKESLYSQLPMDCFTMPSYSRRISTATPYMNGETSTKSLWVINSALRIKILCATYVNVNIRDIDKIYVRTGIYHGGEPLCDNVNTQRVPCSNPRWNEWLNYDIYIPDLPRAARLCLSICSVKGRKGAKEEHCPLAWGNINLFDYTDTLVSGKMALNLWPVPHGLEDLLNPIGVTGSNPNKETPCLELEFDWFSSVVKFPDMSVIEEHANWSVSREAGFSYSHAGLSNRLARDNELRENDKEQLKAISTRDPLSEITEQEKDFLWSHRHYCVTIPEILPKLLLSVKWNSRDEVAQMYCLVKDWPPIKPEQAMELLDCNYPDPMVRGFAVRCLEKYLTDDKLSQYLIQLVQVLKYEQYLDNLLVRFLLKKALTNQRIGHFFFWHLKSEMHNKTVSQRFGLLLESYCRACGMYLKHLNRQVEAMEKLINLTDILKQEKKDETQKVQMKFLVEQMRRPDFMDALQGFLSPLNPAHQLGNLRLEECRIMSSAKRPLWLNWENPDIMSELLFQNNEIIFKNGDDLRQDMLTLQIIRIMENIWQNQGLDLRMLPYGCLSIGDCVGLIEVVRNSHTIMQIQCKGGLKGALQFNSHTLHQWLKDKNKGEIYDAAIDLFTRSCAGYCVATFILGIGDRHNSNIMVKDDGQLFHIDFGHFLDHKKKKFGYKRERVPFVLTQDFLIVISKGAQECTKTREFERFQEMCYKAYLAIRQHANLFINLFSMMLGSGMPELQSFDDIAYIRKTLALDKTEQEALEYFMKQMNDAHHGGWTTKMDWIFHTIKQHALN
PI3 Kinase α, sequence (P27986 whole entry partner): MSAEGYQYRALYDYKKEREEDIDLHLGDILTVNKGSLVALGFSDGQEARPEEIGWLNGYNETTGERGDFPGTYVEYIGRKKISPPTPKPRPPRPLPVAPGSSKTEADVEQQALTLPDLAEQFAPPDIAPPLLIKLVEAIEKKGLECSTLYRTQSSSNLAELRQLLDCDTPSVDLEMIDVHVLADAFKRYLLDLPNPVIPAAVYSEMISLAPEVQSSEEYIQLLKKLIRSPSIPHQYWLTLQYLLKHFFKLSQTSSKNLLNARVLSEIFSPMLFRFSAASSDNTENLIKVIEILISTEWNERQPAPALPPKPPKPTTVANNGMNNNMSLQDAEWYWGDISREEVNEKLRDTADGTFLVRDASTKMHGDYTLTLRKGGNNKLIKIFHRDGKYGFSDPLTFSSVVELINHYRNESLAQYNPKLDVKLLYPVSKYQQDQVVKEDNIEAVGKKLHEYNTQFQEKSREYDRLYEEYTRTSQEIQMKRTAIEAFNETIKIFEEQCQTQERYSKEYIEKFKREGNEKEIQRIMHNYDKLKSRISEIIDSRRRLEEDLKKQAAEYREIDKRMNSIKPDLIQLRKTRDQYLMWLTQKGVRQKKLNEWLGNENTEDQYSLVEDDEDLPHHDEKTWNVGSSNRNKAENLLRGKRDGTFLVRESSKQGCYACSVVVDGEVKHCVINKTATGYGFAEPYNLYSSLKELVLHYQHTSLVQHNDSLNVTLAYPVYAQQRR
Method for PI3 Kinase γ: Nunc 384 well black polypropylene fluorescent plates were used for PI3K assays. Reactions were quenched by the addition of EDTA to a final concentration of 10 μM. Final reaction volumes were 10 ml. […] Reactions were allowed to proceed for one hour at 25° C. After I hour, GST-tagged GRP1 (general receptor for phosphoinositides) PH domain fusion protein was added to a final concentration of 100 nM, and BODIPY-TMRI(1,3,4,5)P4 (Echelon) was also added to a final concentration of 5 nM. Final sample volumes were 25 μl with a final DMSO concentration of 0.8%. Assay Plates were read on PerkinElmer Envision plate readers with appropriate filters for Tamra [BODIPY-TMRI(1,3,4,5)P4]. Data obtained were used to calculate enzymatic activity and enzyme inhibition by inhibitor compounds.

For orientation: IC50 means the concentration at which inhibition is half-maximal. Low readings indicate higher potency, high ones lower potency. For the molecule `CCn1nnc2c(N3CCOCC3)nc(-c3ccc(NC(=O)NC4CCN(C(=O)OCc5ccccc5)CC4)cc3)nc21` [Example 65, benzyl 4-({[4-(3-ethyl-7-morpholin-4-yl-3H-[1,2,3]triazolo[4,5-d]pyrimidin-5-yl)phenyl]carbamoyl}amino)piperidine-1-carboxylate], the IC50 against PI3 Kinase α was determined as 5.63 µM; against PI3 Kinase γ it was 1.8 µM.
In the same order, the values of `O=C(Nc1ccc(-c2nc(N3CCOCC3)c3nnn(C4CC4)c3n2)cc1)Nc1cccnc1` [Example 79, 1-(4-(3-cyclopropyl-7-morpholino-3H-[1,2,3]triazolo[4,5-d]pyrimidin-5-yl)phenyl)-3-(pyridin-3-yl)urea] are 0.007 µM and 0.034 µM.
Regarding `CCn1nnc2c(N3CCOCC3)nc(-c3ccc(NC(=O)Nc4ccc(C(=O)NCCN(C)C)cc4)cc3)nc21` [Example 43, N-[2-(dimethylamino)ethyl]-4-({[4-(3-ethyl-7-morpholin-4-yl-3H-[1,2,3]triazolo[4,5-d]pyrimidin-5-yl)phenyl]carbamoyl}amino)benzamide], the IC50 on PI3 Kinase α came out at 0.001 µM; on PI3 Kinase γ it was 0.018 µM.
`CN(C)CCNC(=O)Nc1ccc(-c2nc(N3CCOCC3)c3nnn(C4CCN(Cc5cccnc5)CC4)c3n2)cc1` [Example 154, 1-(2-(dimethylamino)ethyl)-3-(4-(7-morpholino-3-(1-(pyridin-3-ylmethyl)piperidin-4-yl)-3H-[1,2,3]triazolo[4,5-d]pyrimidin-5-yl)phenyl)urea]: the IC50 against PI3 Kinase α was determined as 0.206 µM; on PI3 Kinase γ, 0.058 µM.
Taken in the same sequence, the figures for `O=C(Nc1ccccc1)Nc1ccc(-c2nc(N3CCOCC3)c3nnn(CC4CNC4)c3n2)cc1` [Example 189, 1-{4-[3-(azetidin-3-ylmethyl)-7-morpholin-4-yl-3H-[1,2,3]triazolo[4,5-d]pyrimidin-5-yl]phenyl}-3-phenylurea] were 0.008 µM and 0.028 µM.
Regarding `O=C(Nc1ccccc1)Nc1ccc(-c2nc(N3CCOCC3)c3nnn(CC4CN(Cc5ccccc5)C4)c3n2)cc1` [Example 191, 1-(4-{3-[(1-benzylazetidin-3-yl)methyl]-7-morpholin-4-yl-3H-[1,2,3]triazolo[4,5-d]pyrimidin-5-yl}phenyl)-3-phenylurea], the values for the half-inhibitory concentration (IC50) on PI3 Kinase α and against PI3 Kinase γ were 0.091 µM and 0.329 µM, respectively.
In the case of `Oc1cccc(-c2nc(N3CCOCC3)c3nnn(CCN4CCN(Cc5ccccc5)CC4)c3n2)c1` [Example 114, 3-{3-[2-(4-benzylpiperazin-1-yl)ethyl]-7-morpholin-4-yl-3H-[1,2,3]triazolo[4,5-d]pyrimidin-5-yl}phenol], the IC50 amounted to 0.255 µM against PI3 Kinase α and 0.983 µM on PI3 Kinase γ.
On to `O=C(Nc1ccc(-c2nc(N3CCOCC3)c3nnn(C4CCN(Cc5ccccc5)CC4)c3n2)cc1)Nc1cccc(Cl)c1` [Example 170, 1-{4-[3-(1-benzylpiperidin-4-yl)-7-morpholin-4-yl-3H-[1,2,3]triazolo[4,5-d]pyrimidin-5-yl]phenyl}-3-(3-chlorophenyl)urea], for which the values for the IC50 against PI3 Kinase α and at PI3 Kinase γ were 5.63 µM and 10.4 µM, respectively.
As to `CN1CCC(n2nnc3c(N4CCOCC4)nc(-c4cncc(O)c4)nc32)CC1` [Example 22, 5-[3-(1-methylpiperidin-4-yl)-7-morpholin-4-yl-3H-[1,2,3]triazolo[4,5-d]pyrimidin-5-yl]pyridin-3-ol], the IC50 came out at 0.304 µM on PI3 Kinase α and 0.318 µM against PI3 Kinase γ.
Turning to `CC(C)(C)OC(=O)N1CC(Cn2nnc3c(N4CCOCC4)nc(-c4ccc(N)cc4)nc32)C1` [Example 187, tert-Butyl 3-{[5-(4-aminophenyl)-7-morpholin-4-yl-3H-[1,2,3]triazolo[4,5-d]pyrimidin-3-yl]methyl}azetidine-1-carboxylate], the IC50 on PI3 Kinase α is 2.08 µM; on PI3 Kinase γ, 12 µM.
Taken in the same sequence, the figures for `OCc1cncc(-c2nc(N3CCOCC3)c3nnn(C4CCNCC4)c3n2)c1` [Example 174, [5-(7-morpholin-4-yl-3-piperidin-4-yl-3H-[1,2,3]triazolo[4,5-d]pyrimidin-5-yl)pyridin-3-yl]methanol] were 0.285 µM and 0.956 µM.
In the same order, the values of `Oc1cncc(-c2nc(N3CCOCC3)c3nnn(C4CCN(Cc5ccc(F)cc5)CC4)c3n2)c1` [Example 14, 5-{3-[1-(4-fluorobenzyl)piperidin-4-yl]-7-morpholin-4-yl-3H-[1,2,3]triazolo[4,5-d]pyrimidin-5-yl}pyridin-3-ol] are 0.06 µM and 0.094 µM.
For `O=C(NCCc1c[nH]c2ccccc12)c1ccc(Cn2nnc3c(N4CCOCC4)nc(-c4cccc(O)c4)nc32)cc1` [Example 225, 4-{[5-(3-hydroxyphenyl)-7-morpholin-4-yl-3H-[1,2,3]triazolo[4,5-d]pyrimidin-3-yl]methyl}-N-[2-(1H-indol-3-yl)ethyl]benzamide], the IC50 on PI3 Kinase α was 0.043 µM; against PI3 Kinase γ, 0.135 µM.
As for “3-{3-[4-(4-Benzylpiperazin-1-yl)butyl]-7-morpholin-4-yl-3H-[1,2,3]triazolo[4,5-d]pyrimidin-5-yl}phenol [Example 206]”, the IC50 at PI3 Kinase α is 0.116 µM; on PI3 Kinase γ, 0.216 µM.
Taken in the same sequence, the figures for `O=C(Nc1ccncc1)Nc1ccc(-c2nc(N3CCOCC3)c3nnn(C4CC4)c3n2)cc1` [Example 78, 1-(4-(3-cyclopropyl-7-morpholino-3H-[1,2,3]triazolo[4,5-d]pyrimidin-5-yl)phenyl)-3-(pyridin-4-yl)urea] were 0.006 µM and 0.0135 µM.
For the molecule `CN(C)CCCNC(=O)c1ccc(Cn2nnc3c(N4CCOCC4)nc(-c4cccc(O)c4)nc32)cc1` [Example 215, N-[3-(dimethylamino)propyl]-4-{[5-(3-hydroxyphenyl)-7-morpholin-4-yl-3H-[1,2,3]triazolo[4,5-d]pyrimidin-3-yl]methyl}benzamide], the IC50 is 0.335 µM at PI3 Kinase α and 4.03 µM against PI3 Kinase γ.
As to `O=C(Nc1ccccc1)Nc1ccc(-c2nc(N3CCOCC3)c3nnn(-c4cccc(C(=O)O)c4)c3n2)cc1` [Example 123, 3-(7-morpholin-4-yl-5-{4-[(phenylcarbamoyl)amino]phenyl}-3H-[1,2,3]triazolo[4,5-d]pyrimidin-3-yl)benzoic acid], the half-maximal inhibitory concentration (IC50) against PI3 Kinase α was found to be 0.004 µM; against PI3 Kinase γ it was 0.0085 µM.
For the molecule `Oc1cccc(-c2nc(N3CCOCC3)c3nnn(CCN4CCN(Cc5ccc[nH]5)CC4)c3n2)c1` [Example 112, 3-(7-morpholin-4-yl-3-{2-[4-(1H-pyrrol-2-ylmethyl)piperazin-1-yl]ethyl}-3H-[1,2,3]triazolo[4,5-d]pyrimidin-5-yl)phenol], the figures for the IC50 at PI3 Kinase α and against PI3 Kinase γ were 0.154 µM and 1.02 µM, respectively.
Turning to `CCn1nnc2c(N3CCOC[C@@H]3C)nc(-c3ccc(NC(=O)Nc4ccc(N5CCN(C)CC5)cc4)cc3)nc21` [Example 76, (S)-1-(4-(3-ethyl-7-(3-methylmorpholino)-3H-[1,2,3]triazolo[4,5-d]pyrimidin-5-yl)phenyl)-3-(4-(4-methylpiperazin-1-yl)phenyl)urea], the IC50 at PI3 Kinase α came out at 0.005 µM; against PI3 Kinase γ, 0.032 µM.
In the same order, the values of `O=C(Nc1ccncc1)Nc1ccc(-c2nc(N3CCOCC3)c3nnn(CC(F)(F)F)c3n2)cc1` [Example 134, 1-{4-[7-morpholin-4-yl-3-(2,2,2-trifluoroethyl)-3H-[1,2,3]triazolo[4,5-d]pyrimidin-5-yl]phenyl}-3-pyridin-4-ylurea] are 0.002 µM and 0.0255 µM.
